We go through 51 molecules from ChEMBL document CHEMBL6153025, “Multidrug-resistant bacteria quorum-sensing inhibitors: A particular focus on Pseudomonasaeruginosa” (Eur J Med Chem, 2025).

Assay [1] concerns Pseudomonas aeruginosa. As to the kind of experiment: Antibiofilm activity against Pseudomonas aeruginosa PA14 assessed as reduction in biofilm biomass production at 18 ug/ml relative to control. Further details: scale not given: the % may be the effect or the level left. The note with it: dose 18 µg/ml. In kind it is functional.
For assay [2], the system named is Pseudomonas aeruginosa. As to the kind of experiment: Antibacterial activity against Pseudomonas aeruginosa ATCC 15442 assessed as reduction in bacterial cell growth incubated for 24 hrs by two fold serial microdilution method. In kind it is functional. (In general: Dilution methods test growth across graded concentrations, often in twofold steps.)
The subject of assay [3] is Pseudomonas aeruginosa. The experiment in a line: Antivirulence activity in Pseudomonas aeruginosa PAO1 assessed as reduction in pyocyanin production at 10 uM incubated for 24 hrs by absorbance based analysis relative to control. More on the design: scale not given: the % may be the effect or the level left. In kind it is functional.
In assay [4] the test system is Pseudomonas aeruginosa. As to the kind of experiment: Antibacterial activity against Pseudomonas aeruginosa ATCC 27853 assessed as bacterial growth inhibition by agar diffusion assay. In kind it is functional. (In general: Agar diffusion results depend on both activity and mobility in agar.)
Assay [5] is described as follows: Inhibition of quorum sensing system in Pseudomonas aeruginosa PAO1.
Assay [6] relates to Pseudomonas aeruginosa. The experiment in a line: Antibiofilm activity against Pseudomonas aeruginosa PAO1 assessed as inhibition of biofilm formation at 100 uM relative to control. In kind it is functional. Further details: scale not given: the % may be the effect or the level left.
Assay [7] relates to Pseudomonas aeruginosa. As to the kind of experiment: Anti-virulence activity against Pseudomonas aeruginosa PAO1-L assessed as reduction in pyocyanin production at 10 uM incubated for 24 hrs by absorbance based analysis relative to control. More on the design: scale not given: the % may be the effect or the level left. In kind it is functional.
For assay [8], the system named is Pseudomonas aeruginosa. The experiment in a line: Antibacterial activity against Pseudomonas aeruginosa PAO1-L. In kind it is functional, organism-based.
A short description of assay [9]: Inhibition of quorum sensing system in Pseudomonas aeruginosa PAO1 expressing lasB-gfp.
In assay [10] the test system is Staphylococcus aureus. As to the kind of experiment: Antibacterial activity against Methicillin-sensitive Staphylococcus aureus. In kind it is functional.
Assay [11] has as its system Bacillus pumilus. As to the kind of experiment: Antibacterial activity against Bacillus pumilus. In kind it is functional.
Assay [12] deals with Escherichia coli. As to the kind of experiment: Antibacterial activity against Escherichia coli. In kind it is functional.
The subject of assay [13] is Pseudomonas aeruginosa. As to the kind of experiment: Antivirulence activity against Pseudomonas aeruginosa PAO1 assessed as reduction in pyocyanin level at 10 uM relative to control. More on the design: scale not given: the % may be the effect or the level left. In kind it is functional.
For assay [14], the system named is Bacillus subtilis. The experiment in a line: Antibacterial activity against Bacillus subtilis. In kind it is functional.
Assay [15] relates to Pseudomonas aeruginosa. The experiment in a line: Antibacterial activity against Pseudomonas aeruginosa. In kind it is functional.
The test system of assay [16] is Pseudomonas aeruginosa. The experiment in a line: Anti-virulence effect in Pseudomonas aeruginosa PAO1 assessed as inhibition of rhamnolipid production at 10 uM relative to control. Further details: scale not given: the % may be the effect or the level left. In kind it is functional.

As for `COc1cc(/C=C/c2ccc(S(F)(F)(F)(F)F)cc2)c(C(=O)O)c(O)c1CC=C(C)C`, the Activity in assay [1] was determined as 50%.

One may read the MIC as the lowest concentration that inhibits growth of the organism. In the case of `Clc1ccc2c(NCCCCCCCCNCc3cc4ccccc4o3)ccnc2c1`, in assay [2], the MIC is greater than 2 µM. Besides, in assay [3], the Activity stood at 97%. Consider `COc1cc(/C=C/C2C(C)=NC(C)=CN2C)c(C(=O)O)c(O)c1CC=C(C)C` (configuration not stated), for which, in assay [1], the Activity is 59.68%. Turning to `COc1ccc(C(=O)CSc2ccc3ccccc3n2)c(OC)c1`, the MIC in [4] is greater than 128 µg/mL.

As usually defined, the IC50 is the concentration that gives 50% inhibition. In the case of `O=C(CNc1ccc(C(=O)/C=C/c2cc(Cl)cc(Cl)c2)cc1)N[C@@H]1CCOC1=O`, in [5], the IC50 worked out at 46.8 µM. Take `O=C(CNc1ccc(C(=O)/C=C/c2ccccc2Cl)cc1)N[C@@H]1CCOC1=O`: the IC50 in assay [5] worked out at 67.8 µM.

Turning to `O=Cc1ccc(O)c(O)c1` [PROTOCATECHUALDEHYDE], in [6], the Activity was determined as 18%. For the molecule `N#CCc1ccc(OC[C@@H](O)Cn2cnc3ccc(Cl)cc3c2=O)cc1`, the Activity in [7] is 95%. Moreover, the IC50 was 4.3 µM in assay [8] and 7 µM in [9]. Consider `N#CCc1ccc(OCC(F)Cn2cnc3ccc(Cl)cc3c2=O)cc1` (configuration not stated), for which, in assay [8], the IC50 was 4.3 µM. On to `COc1cc(/C=C/c2cn(Cc3ccccc3)nn2)c(C(=O)O)c(O)c1CC=C(C)C`, for which the Activity in assay [1] is 51.38%. Still for that read-out and setting: as for `COc1cc(/C=C/c2cncnc2)c(C(=O)O)c(O)c1CC=C(C)C`, the figure is 36.11%. As for `O=C(CNc1ccc(C(=O)/C=C/c2ccc(Br)cc2)cc1)N[C@@H]1CCOC1=O`, in [5], 46.8 µM corresponded to half-maximal inhibition (IC50).

As for `O=c1cc(-c2ccc(O)c(O)c2)oc2c([C@H]3C[C@@H](O)[C@H](O)[C@@H](CO)O3)c(O)cc(O)c12`, in assay [6], the Activity stood at 18%. In turn, `N#CCc1ccc(OCC(O)Cn2cnc3ccc(Cl)cc3c2=O)c(F)c1` (configuration not stated) showed an IC50 in assay [8] of 2.2 µM. Regarding `O=C(CNc1ccc(C(=O)/C=C/c2ccccc2Br)cc1)N[C@@H]1CCOC1=O`, the IC50 in [5] came out at 37.6 µM.

For `Cc1ccc(OCCCCCC(=O)NN2C(=O)CN(c3ccccc3O)C2=O)cc1`, the minimal inhibitory concentration (MIC) in assay [10], in [11], in assay [12], in assay [14] and in assay [15] was greater than 512 µg/mL throughout. In addition, the Activity in assay [13] amounted to 61%. As for `O=C(CSc1ccc2ccccc2n1)c1ccccc1`, the MIC in [4] was greater than 128 µg/mL. Regarding `COc1ccc(OCCCCCC(=O)NN2C(=O)CN(c3ccccc3O)C2=O)cc1`, the MIC in assay [10], in assay [11], in assay [12], in assay [14] and in assay [15] was greater than 512 µg/mL in each case. Moreover, the Activity in [13] is given as 61%. Take `N#CCc1ccc(OCC(N)Cn2cnc3ccc(Cl)cc3c2=O)cc1` (configuration not stated): the concentration for half-maximal inhibition (IC50) in [8] is 4.3 µM; in [9] it was 2.4 µM. As to `CC(=O)NCCCCCCCCNc1ccnc2cc(Cl)ccc12`, the MIC in [2] was greater than 2 µM. For the same molecule, the Activity in assay [3] was determined as 42%. In the case of `O=c1cc(-c2ccc(O)c(O)c2)oc2cc(O)c([C@@H]3O[C@H](CO)[C@@H](O)[C@H](O)[C@H]3O)c(O)c12` [ISOORIENTIN], in [6], the Activity was found to be 18%. For `COc1cc(/C=C/c2cccc3cccnc23)c(C(=O)O)c(O)c1CC=C(C)C`, the Activity in assay [1] turned out to be 35.61%. Turning to `COc1cc(C(=O)CSc2ccc3ccccc3n2)ccc1O`, in [4], the minimal inhibitory concentration (MIC) was greater than 128 µg/mL. Consider `O=C(CCCCCOc1cccc(C(F)(F)F)c1)NN1C(=O)CN(c2ccccc2O)C1=O`, for which the minimal inhibitory concentration (MIC) in assay [10], in assay [11], in assay [12] and in [14] was greater than 512 µg/mL in each case. For the same molecule, the Activity in [13] is 38.62%. `O=C(CSc1ccc2ccccc2n1)c1ccc2c(c1)OCCO2`: the minimal inhibitory concentration (MIC) in assay [4] is greater than 128 µg/mL. As for `O=C(CCCCCOc1ccc(F)cc1)NN1C(=O)CN(c2ccccc2O)C1=O`, the minimal inhibitory concentration (MIC) in [10], in [11], in assay [12], in assay [14] and in assay [15] was greater than 512 µg/mL each time. The Activity in [13] was determined as 61%. For the molecule `N#CCc1ccc(OCC(=O)Cn2cnc3ccc(Cl)cc3c2=O)cc1`, the 50% inhibitory concentration (IC50) in assay [8] was 4.3 µM.

In the case of `O=C(CSC1=NC2C=C([N+](=O)[O-])C=CC2=N1)Cc1ccc(Br)cc1` (configuration not stated), the MIC in assay [4] is greater than 512 µg/mL. In assay [5], `O=C(CNc1ccc(C(=O)/C=C/c2ccc(F)cc2)cc1)N[C@@H]1CCOC1=O` had an IC50 of 46.8 µM. With `COc1cc(/C=C/c2cncs2)c(C(=O)O)c(O)c1CC=C(C)C`, in assay [1], the Activity was 21.06%. As to `O=C(CNc1ccc(C(=O)/C=C/c2ccc(Br)cc2F)cc1)N[C@@H]1CCOC1=O`, the IC50 in [5] was determined as 26.5 µM.

In the case of `Clc1ccc2c(NCCCCCCCCNCc3cc4ccccc4s3)ccnc2c1`, the MIC in [2] is greater than 2 µM. In assay [3], the Activity is on record as 97%. Turning to `O=C(CSc1nc2ccccc2s1)c1ccc(Cl)c(Cl)c1`, the minimal inhibitory concentration (MIC) in assay [4] was greater than 128 µg/mL.

For `COc1cc(O)c(C(=O)O)c(CCc2ccc(S(F)(F)(F)(F)F)cc2)c1`, in [1], the Activity was determined as 19.48%. As to `COc1ccccc1C(=O)CSc1ccc2ccccc2n1`, the MIC in assay [4] was greater than 128 µg/mL. In assay [5], `O=C(CNc1ccc(C(=O)/C=C/c2ccc(Cl)cc2)cc1)N[C@@H]1CCOC1=O` registered a half-inhibitory concentration (IC50) of 46.8 µM.

`O=C(CCCCCOc1ccc(C(F)(F)F)cc1)NN1C(=O)CN(c2ccccc2O)C1=O`: the MIC in [10], in [11], in assay [12], in assay [14] and in assay [15] was greater than 512 µg/mL in each case. Also, the Activity in assay [13] was found to be 38.62%. With `COc1cc(/C=C/c2ccc(C#N)cc2F)c(C(=O)O)c(O)c1CC=C(C)C`, the Activity in assay [1] is 19.43%. On to `CCCCCCCCCCC(=O)NN1C(=O)CN(c2ccccc2O)C1=O`, for which the MIC in assay [10], in [11], in assay [12], in [14] and in [15] was greater than 512 µg/mL throughout. The figures for the Activity in assay [13] and in [16] were 38.62% and 2.76%, respectively.

On to `O=c1c(O[C@@H]2O[C@H](CO)[C@@H](O)[C@H](O)[C@H]2O)c(-c2ccc(O)c(O)c2)oc2cc(O)cc(O)c12` [ISOQUERCETIN], for which the Activity in assay [6] is listed as 18%. Consider `O=C(CSc1nc2ccccc2s1)c1ccccc1`, for which, in assay [4], the MIC was greater than 128 µg/mL. On to `O=C(CNc1ccc(C(=O)/C=C/c2ccccc2)cc1)N[C@@H]1CCOC1=O`, for which half-maximal inhibition in assay [5] (IC50) required 62.5 µM.

On to `N#CCc1ccc(OCC(O)Cn2cnc3ccc(Cl)cc3c2=O)cc1F` (configuration not stated), for which half-maximal inhibition in [8] (IC50) was put at 6.4 µM.

Take `Clc1ccc2c(NCCCCCCCCNCc3csc4ccccc34)ccnc2c1`: in [2], the MIC is greater than 2 µM. Moreover, in [3], the Activity was determined as 97%. As to `CCCCCCCCNc1ccnc2cc(Cl)ccc12`, the MIC in assay [2] was greater than 2 µM. In [3], the Activity is listed as 80%. For `Clc1ccc2c(NCCCCCCCCNCc3ncc[nH]3)ccnc2c1`, the MIC in assay [2] was greater than 2 µM. The Activity in [3] is reported as 97%. As to `COc1cc(O)c(C(=O)O)c(/C=C/c2ccc(S(F)(F)(F)(F)F)cc2)c1`, the Activity in [1] came to 18.95%.

Consider `FC(F)(F)c1ccc(CNCCCCCCCCNc2ccnc3cc(Cl)ccc23)cc1`, for which the MIC in assay [2] is greater than 2 µM. In addition, in assay [3], the Activity is 97%.

As to `O=[N+]([O-])c1ccc(CNCCCCCCCCNc2ccnc3cc(Cl)ccc23)cc1`, the minimum inhibitory concentration (MIC) in assay [2] was greater than 2 µM. Also, the Activity in [3] is 97%. `O=C(CNc1ccc(C(=O)/C=C/c2ccc(Cl)c(Cl)c2)cc1)N[C@@H]1CCOC1=O` yielded an IC50 in assay [5] of 46.8 µM. In the case of `COc1cccc(/C=C/C(=O)c2ccc(NCC(=O)N[C@@H]3CCOC3=O)cc2)c1`, inhibition in [5] was half-maximal at 56.5 µM (IC50).
